Data: patent US20200268753A1, “PERK AND IRE-1A INHIBITORS AGAINST NEURODEVELOPMENTAL DISORDERS” (priority 2017, published 2020)

Legend:
[1] = tested on: UPR effectors (PERK-ATF4 arm, IRE-1/Xbp1); experiment: qRT-PCR of UPR effector expression levels in ZIKV-infected embryonic mouse brains; type: in vivo
Text: (§1) To test the efficacy of Salubrinal and ISRIB (PERK inhibitors) in decreasing the expression levels of UPR effectors after ZIKV infection we intracerebroventricularly injected ZIKV+Salubrinal (or ISRIB) in E12.5 mouse cortices and collected brains at E18.5. These samples were stored in Trizol (Invitrogen) and RNA was extracted according to manufacturer instructions. RNA was then retro-transcribed and cDNA was used to perform qRT-PCR to quantify ZIKV and UPR effectors levels in each sample. […] The expression levels of several PERK pathway effectors were analyzed: mATF4 (FIG. 6B), mATF5 (FIG. 6C), mCHAC1 (FIG. 6D). […] (Kruskal-Wallis test, *p<0.05, ** p<0.005).
(§2) To test the efficacy of Resveratrol (IRE1a inhibitor) in decreasing the expression levels of UPR effectors after ZIKV infection we intracerebroventricularly injected ZIKV+Resveratrol in E12.5 mouse cortices and collected brains at E18.5. These samples were stored in Trizol (Invitrogen) and RNA was extracted according to manufacturer instructions. RNA was then retro-transcribed and cDNA was used to perform qRT-PCR to quantify ZIKV and UPR effectors levels in each sample. […] The expression levels of several PERK pathway effectors were analyzed: mATF4 (FIG. 7B), mATF3 (FIG. 7C), mXbp1 spliced/unspliced and mXbp1 tot (FIG. 7D), mChop (FIG. 7E).
Total RNA was obtained from micro-dissected embryonic mouse brains, and neuronal progenitors seeded in 6 well-plate culture dishes after application of Trizol according to the manufacturer's protocol (Ambion-Life Technologies, 15596018).
The quantity and quality of RNA were assessed by NanoDrop 1000 (Nano-Drop Technologies) before cDNA synthesis by SuperScript III reverse transcriptase (Invitrogen), as used according to the manufacturer's instructions. The resulting cDNA was used for quantitative PCR, using Faststart Universal SYBR Green Master (Roche) in an Applied Biosystem 7900HT Fast Real-Time PCR detection system (Applied Biosystems, Foster city, USA). The following genes of interest (GOI) were normalized to the reference genes β-actin, Glyceraldehyde-3-Phosphate dehydrogenase (GAPDH), hypoxanthine phosphoribosyltransferase 1 (HPRT1), and 36b4 ribosomal protein (36b4). Tested genes were GAPDH, HPRT1, 36B4, ACTIN, ZIKA, Atf4, Atf3, Atf5, Chac1, Chop, Sesn2, Tbr2, Neurod6, Tubb3, hPDI, Slc7a3, MX1, TLR3, HRD1, OCT4, NESTIN, PAX6, SOX1 and mPDI.

ZIKV [2] = experiment: ZIKV-induced microcephaly and apoptosis after intracerebroventricular injection in mouse embryos (E12.5, analysed E18.5); type: in vivo; settings: for ZIKV-induced microcephaly / microcephalic phenotype: injected with ZIKV ICV at E12.5, E18.5 brains, vs vehicle
ZIKV [3] = experiment: qRT-PCR quantification of ZIKV copies in ICV-injected embryonic mouse brains; type: in vivo; settings: for number of ZIKV copies: ICV co-injection with ZIKV at E12.5, brains at E18.5, vs ZIKV+DMSO, Kruskal-Wallis test
Text: as §1, §2
The number of Zika particles in the samples analyzed by qRT-PCR (see above) was calculated as previously described (Lanciotti et al, 2008). Briefly, a standard curve was created by performing serial dilutions of a plasmid containing 76-bp long sequence from the Zika genome (from nt 1,086 to 1,162; GCF_000882815.3, as indicated in Nature Neurosciences (2018) Gladwyn et al.) and querying these dilutions by qRT-PCR analysis.
This standard curve allows the conversion of Cp of samples queried for Zika virus (as described above) into N^o of Zika copies/a L. We used the following formula to link this quantification to the amount of RNA retrotranscribed for the analysis of each sample: […]
Finally, the N^o of copies/μg RNA was divided for the relative concentration of each sample analyzed by qRT-PCR (since for each analyzed gene in this study we performed a relative quantification compared to the controls of the same experiment). The relative concentration of each sample is automatically calculated by the LightCycler480 and its accompanying software.

ZIKV [4] = experiment: Intraplacental (IPL) ZIKV injection in pregnant NMRI mice, cortical defects at E18.5; type: in vivo, mouse; settings: intraplacental ZIKV at E12.5, co-injection
ZIKV [5] = experiment: Neurogenic balance after intracerebroventricular ZIKV injection and in utero GFP electroporation of mouse embryos; type: in vivo; settings: co-administered with ZIKV ICV at E12.5, second injection at electroporation; E14.5; vs Mock-DMSO and Mock-PERKi
Experimental: To test whether the deregulation of UPR induced by ZIKV-infection results in the impairment of this neurogenic balance, we performed ICV injection of ZIKV in E12.5 mouse brains, followed by in utero electroporation of GFP-expressing plasmids one day later to fate-map APs at E14.5 (APs, immature IPs and IPs, neurons) (FIGS. 3A-B). The phenotype of the “direct progeny” of targeted APs was then assessed by immunohistochemistry (FIGS. 3B-D). In order to characterize the fate of GFP+ cells, we subdivided them into APs (Sox2+, Tbr2− or Tbr2−, Tbr1−), immature IPs (Sox2+, Tbr2+ or Tbr2+, Tbr1−), IPs (Sox2−, Tbr2+ or Tbr2+, Tbr1+), or neurons (Sox2−, Tbr2− or Tbr2−, Tbr1+).
To assess if ZIKV directly impacts the neurogenic balance through UPR deregulation in GFP labeled APs, we co-injected GSK2656157 (a PERK inhibitor, named PERKi) with ZIKV into the lateral ventricles of E12.5 embryos and repeated a second PERKi injection at the time of electroporation.
Embryonic (E) 14.5, E16.5 and E18.5 mouse brains were dissected in 0.1M phosphate-buffered saline pH7.4 (PBS), and were fixed in 4% paraformaldehyde (PFA in PBS) for one hour at room temperature, whereas human neural stem cells (hNSCs) were fixed in 4% PFA at 4° C. for 10 minutes. […]

[6] = high doses, ICV co-injection with ZIKV at E12.5, brains at E18.5, vs ZIKV+DMSO
[7] = ZIKV ICV at E12.5, E18.5, compared to vehicle treatment
[8] = single injection of 50M at time of infection (E12.5), E18.5

SMILES: Cc1cc(=O)oc2c(C=O)c(O)ccc12 [4μ8C]
- activation of the PERK-ATF4 UPR arm ([1]; ZIKV-infected mouse brains): prevented activation
- ZIKV-induced microcephaly / microcephalic phenotype (ZIKV [2]): rescued the microcephalic phenotype

SMILES: O=C(COc1ccc(Cl)cc1)NC1CCC(NC(=O)COc2ccc(Cl)cc2)CC1 (centres unmarked) [ISRIB]
- mATF4 expression level [1, 6]: marked decrease
- mATF5 expression level [1, 6]: marked decrease
- mCHAC1 expression level [1, 6]: marked decrease
- number of ZIKV copies (ZIKV [3]): unaffected compared to controls

SMILES: Cc1cccc(CC(=O)N2CCc3c2ccc(-c2cn(C)c4ncnc(N)c24)c3F)n1 [PERKi]
- ZIKV-induced cortical defects (cortical thickness, neuronal apoptosis, cytoarchitecture) (ZIKV [4]): rescued
- ZIKV particles (ZIKV [3]; ZIKV-infected mouse brains treated with PERKi): not associated with a reduction
- brain weight (ZIKV [2]; [7]): significant improvement
- cortical dimensions (brain width, length) (ZIKV [2]; [7]): significant improvement
- numbers of neurons sitting in different cortical layers (ZIKV [2]; [7]): significant improvement
- ZIKV-induced microcephaly / microcephalic phenotype (ZIKV [2]): reduced ZIKV-induced microcephaly
- ER stress (ZIKV [2]; [8]): decreased
- apoptosis (ac-caspase 3) (ZIKV [2]; [8]): decreased
- imbalance between direct and indirect neurogenesis (proportions of APs, newborn IPs, IPs and neurons) (ZIKV [5]): remarkably corrected the imbalance between direct and indirect neurogenesis

SMILES: Oc1ccc(C=Cc2cc(O)cc(O)c2)cc1 [Resveratrol]
- mATF3 expression level [1, 6]: marked decrease
- mATF4 expression level [1, 6]: marked decrease
- mChop expression level [1, 6]: marked decrease
- number of ZIKV copies (ZIKV [3]): unaffected compared to controls

SMILES: O=C(/C=C/c1ccccc1)NC(NC(=S)Nc1cccc2cccnc12)C(Cl)(Cl)Cl (centres unmarked) [Salubrinal]
- mATF4 expression level [1, 6]: marked decrease
- mATF5 expression level [1, 6]: marked decrease
- mCHAC1 expression level [1, 6]: marked decrease
- number of ZIKV copies (ZIKV [3]): unaffected compared to controls
